Here are results for 3 compounds from publication PMC9848270, “Synthesis and biological assessment of indole derivatives containing penta-heterocycles scaffold as novel anticancer agents towards A549 and K562 cells” (Journal of Enzyme Inhibition and Medicinal Chemistry, 2023).

Data set [1] deals with human chronic myeloid leukaemia cells (K562). The experiment in a line: MTT antiproliferative assay, K562. Conditions: for inhibition at 10 µM: K562, 10 μM, read-out: Inhibition rate, K562; for IC50: K562, 48 h, MTT assay, 48 h, read-out: In vitro cytotoxicity IC50, K562. The class given is cell-based. On the procedure: (§1) A549, PC-3, HepG2 and K562 cells were purchased from the Kunming cell bank of the Chinese academy of sciences. All cell lines were cultured in DMEM or RPMI 1640 complete medium. Logarithmic growth cells were cultured in 96-well plates at a concentration of 10^4 cells per well and pre-cultured for 24 h before adding test compounds. The MTT test with 5-Fluorouracil and Gefitinib as reference compounds were used to evaluate antiproliferative activity of target compounds in four human cancer line cells. For the estimation of the inhibition concentration (IC50), the Graph Pad Prism (GraphPad Software, San Diego, CA) was used.

Data set [2] is described as follows: MTT cytotoxicity, normal cell line HEK293. The class given is cell-based, human. Conditions: human, HEK293 cells (normal cell line); MTT assay, 48 h; normal cell line; CC50; read-out: In vitro cytotoxicity IC50, HEK293.
The subject of data set [3] is normal cell line (HEK293). The data set is described as follows: MTT cytotoxicity, normal cell line HEK293. Conditions: Homo sapiens, HEK293; 10 μM; read-out: Inhibition rate, HEK293. The class given is cell-based, human.
In data set [4] the test system is A549, PC-3, HepG2 and K562 cells. The data set is described as follows: MTT antiproliferative assay, four cancer cell lines taken together. The class given is cell-based, human. On the procedure: as §1
On the technique in general: Tetrazolium dyes change colour on reduction, which living cells bring about.

In data set [5] the test system is human liver cancer cells (HepG2). The experiment in a line: MTT antiproliferative assay, HepG2. The class given is cell-based. Particulars: for inhibition at 10 µM: read-out: Inhibition rate, HepG2; for IC50: MTT assay, 48 h, read-out: In vitro cytotoxicity IC50, HepG2. On the procedure:
as §1

Data set [6] concerns human non-small cell lung cancer cells (A549). The experiment in a line: MTT antiproliferative assay, A549. The class given is cell-based. Conditions: for inhibition at 10 µM: A549, 10 μM, read-out: Inhibition rate, A549; for IC50: A549, 48 h, MTT assay, 48 h, read-out: In vitro cytotoxicity IC50, A549. As for the experimental part:
as §1

The test system of data set [7] is human prostate cancer cells (PC-3). The data set is described as follows: MTT antiproliferative assay, PC-3. The class given is cell-based. Conditions: Homo sapiens; for IC50: 48 h, MTT assay, read-out: In vitro cytotoxicity IC50, PC-3; for inhibition at 10 µM: read-out: Inhibition rate, PC-3. As for the experimental part:
as §1

For another data set, the system named is MCF-7 cell. Details: method as in PMID 33130342. Particulars: cited from earlier work.

What is called inhibition is the relative decrease from the control value, in per cent. What is called IC50 is the point on the concentration scale where inhibition reaches its midpoint. On to `O=C(CSc1nnc(-c2ccccc2Br)s1)Nc1cc(-c2c[nH]c3ccccc23)n[nH]1` [Compound 10c, N-(3-(1H-indol-3-yl)-1H-pyrazol-5-yl)-2-((5–(2-bromophenyl)-1,3,4-thiadiazol-2-yl)thio)acetamide], for which the inhibition at 10 µM in data set [1] stood at 27.1 ± 1.87%; in data set [3], 33 ± 1.46%; in data set [5], 11.9 ± 2.21%; in data set [6], 24.3 ± 2.77%; in data set [7], 30.3 ± 12.6%. The IC50 was found to be 33.7 ± 3.54 µM in data set [1], 61.3 ± 17 µM in data set [5], 18.8 ± 2.92 µM in data set [6] and 31.9 ± 18 µM in data set [7]. Further, in data set [2], the IC50 at 48 h came to 63.7 ± 6.51 µM. The “antiproliferative activity in words” value in data set [4] is “quite weak antiproliferative activity”.
As for `O=C(CSc1nnc(-c2ccccc2F)s1)Nc1cc(-c2c[nH]c3ccccc23)n[nH]1` [Compound 10g, N-(3-(1H-indol-3-yl)-1H-pyrazol-5-yl)-2-((5-(2-fluorophenyl)-1,3,4-thiadiazol-2-yl)thio)acetamide], the inhibition at 10 µM in data set [1] was determined as 97.4 ± 0.838%; in data set [3], 68.1 ± 4.49%; in data set [5], 56.9 ± 9.69%; in data set [6] it was 55.2 ± 3.17%; in data set [7], 96.4 ± 2.21%. For the same compound, the IC50 in data set [1] came to 3.32 ± 0.09 µM; in data set [5], 11.8 ± 2.02 µM; in data set [6] it was 14.2 ± 1.61 µM; in data set [7], 2.98 ± 0.28 µM. The IC50 at 48 h in data set [2] turned out to be 10.1 ± 2.2 µM. Besides, the “antiproliferative activity in words” value in data set [4] is reported as “quite weak antiproliferative activity”.
As for `O=C(Nc1nnc(SCc2ccc(Cl)c(Cl)c2)s1)c1cn(C2CC2)c2cc(N3CCNCC3)c(F)cc2c1=O` [Compound B], the “apoptosis in MCF-7 cell, in words” value with MCF-7 cell is on record as “inducing apoptosis significantly”.
